According to patent publication US4749687A, “Renin inhibitors containing statine or derivatives thereof” (Pfizer Inc., priority 1985, dated 1988):
Where a name gives a salt, the structure may show the parent alone. Where a SMILES comes first, the peptide text is derived from it.

Each compound was assayed against T1, renin (Homo sapiens, UniProt P00797) (assay: Inhibition of the angiotensinogen-cleaving activity of renin in vitro (plasma, angiotensin I radioimmunoassay)). Conditions: pooled blood plasma from healthy laboratory personnel, pH 7.4, incubated three hours at 37° C., angiotensin I by radioimmunoassay; read-out: IC50 (inhibitor concentration required to produce a fifty percent inhibition of the angiotensinogen-cleaving activity of renin).
T1 construct: Blood plasma was obtained from healthy laboratory personnel, pooled and stored frozen until required; from tissue; host or cells: pooled human blood plasma (supernatant after centrifugation)
T1 sequence (P00797 67-406): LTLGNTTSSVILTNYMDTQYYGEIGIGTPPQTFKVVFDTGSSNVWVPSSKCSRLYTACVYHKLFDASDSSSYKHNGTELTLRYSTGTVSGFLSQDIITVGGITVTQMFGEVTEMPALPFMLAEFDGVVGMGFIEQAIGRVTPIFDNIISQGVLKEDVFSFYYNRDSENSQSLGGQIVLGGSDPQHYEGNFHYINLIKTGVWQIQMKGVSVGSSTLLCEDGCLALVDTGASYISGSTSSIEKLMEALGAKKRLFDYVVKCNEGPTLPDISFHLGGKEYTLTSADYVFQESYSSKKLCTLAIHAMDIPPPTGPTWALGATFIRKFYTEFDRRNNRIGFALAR
Type: biochemical
Description: Blood plasma was obtained from healthy laboratory personnel, pooled and stored frozen until required. Before use, a quantity of this plasma was defrosted and centrifuged, and the supernatant mixed with protease inhibitors and buffered to pH 7.4. Renin inhibitors were added at different levels to different aliquots of the plasma supernatant, and the resulting mixtures (310 lambda) incubated for three hours at 37° C. along with renin inhibitor-free control mixtures. After incubation, the mixtures were quenched in ice water and each assayed for angiotensin I using angiotensin I antibody. The production of angiotensin I in the presence of a renin inhibitor was compared to that produced in the absence of the inhibitor, and a percentage inhibition was calculated. Using data obtained from duplicate incubations at each of several different inhibitor concentrations, the inhibitor concentration in the incubation mixture required to produce a fifty percent inhibition of the angiotensinogen-cleaving activity of renin, i.e. the IC50 of the inhibitor, was calculated for various different inhibitors.
The angiotensin I in the quenched incubation mixtures was assayed by means of a radioimmunoassay, using components of a renin radioimmunoassay kit supplied by Becton Dickinson and Co. (Orangeburg, N.Y.). This radioimmunoassay was based upon the one developed by Haber et al., J. Clin. Endocrinol., 29, pp. 1349-1355 (1969).

IC50 [µM]	Compound
< 4	CC(C)(C)OC(=O)N1CCC[C@H]1C(=O)N[C@@H](Cc1ccccc1)C(=O)N[C@@H](Cc1c[nH]cn1)C(=O)N[C@@H](CC1CCCCC1)[C@@H](O)CC(=O)N[C@@H](CCCCN)C(=O)N[C@@H](Cc1ccccc1)C(=O)O [Example 10, [N-(t-butyloxycarbonyl)-Pro]-Phe-His-CyclostatineLys-Phe] (HELM PEPTIDE1{[CC(C)(C)OC(=O)[*:2]].P.F.H.[O=C(C[C@H](O)[C@H](CC1CCCCC1)N[*:1])[*:2]].K.F}$$$$V2.0)
< 4	CC(C)(C)OC(=O)N[C@@H](Cc1ccccc1)C(=O)N[C@@H](Cc1c[nH]cn1)C(=O)N[C@@H](CC1CCCCC1)[C@@H](O)CC(=O)N[C@@H](CCCCN)C(=O)N[C@@H](Cc1ccccc1)C(=O)O [Example 9, [N-(t-butyloxycarbonyl)-Phe]-His-Cyclostatine-Lys-Phe] (HELM PEPTIDE1{[CC(C)(C)OC(=O)[*:2]].F.H.[O=C(C[C@H](O)[C@H](CC1CCCCC1)N[*:1])[*:2]].K.F}$$$$V2.0)
< 4	CC[C@H](C)[C@@H](CN[C@@H](Cc1ccccc1)C(=O)O)NC(=O)C[C@H](O)[C@H](CC1CCCCC1)NC(=O)[C@H](Cc1c[nH]cn1)NC(=O)[C@H](Cc1ccccc1)NC(=O)OC(C)(C)C [Example 11, [N-(t-butyloxycarbonyl)-Phe]-His-Cyclostatine-[Amino(2-secbutyl-ethylene)]-Phe Acetic Acid Salt]
< 4	[N-(t-butyloxycarbonyl)-Phe]-His-Aminostatine-Ile-Phe Diacetate [Example 5]
